# From US10351827B2, “Method for differentiating induced pluripotent stem cells into renal proximal tubular cell-like cells” (priority 2013, dated 2019)
# Like-named read-outs stand apart in the source and are kept apart here.
# What was measured:
# PTC in humans = conditions: cited from earlier work
# [1] = system: iPS(Foreskin)-4-derived d8 HPTC-like cells
# HPTCs = conditions: similar experiments performed with HPTCs; cited from earlier work
# [2] = system: hiPSC-derived HPTC-like cells; test: nephrotoxicology in vitro model based on interleukin-6/interleukin-8 expression (Example 1)
# [3] = system: hiPSC-derived HPTC-like cells
# OCT2 = OCT2 (Homo sapiens, UniProt O15244); conditions: co-incubation of 100 μg/ml rifampicin with 2 mM cimetidine, iPS(Foreskin)-4-derived d8 cells
# [4] = 1 μg/ml, overnight (16 h), qPCR, normalized to vehicle control (=1), mean +/- s.d., n=3
# [5] = 10 μg/ml, overnight (16 h), qPCR, normalized to vehicle control (=1), mean +/- s.d., n=3
# [6] = 100 μg/ml, overnight (16 h), qPCR, normalized to vehicle control (=1), mean +/- s.d., n=3
# [7] = 1,000 μg/ml, overnight (16 h), qPCR, normalized to vehicle control (=1), mean +/- s.d., n=3
# Chain of OCT2 (O15244 whole entry): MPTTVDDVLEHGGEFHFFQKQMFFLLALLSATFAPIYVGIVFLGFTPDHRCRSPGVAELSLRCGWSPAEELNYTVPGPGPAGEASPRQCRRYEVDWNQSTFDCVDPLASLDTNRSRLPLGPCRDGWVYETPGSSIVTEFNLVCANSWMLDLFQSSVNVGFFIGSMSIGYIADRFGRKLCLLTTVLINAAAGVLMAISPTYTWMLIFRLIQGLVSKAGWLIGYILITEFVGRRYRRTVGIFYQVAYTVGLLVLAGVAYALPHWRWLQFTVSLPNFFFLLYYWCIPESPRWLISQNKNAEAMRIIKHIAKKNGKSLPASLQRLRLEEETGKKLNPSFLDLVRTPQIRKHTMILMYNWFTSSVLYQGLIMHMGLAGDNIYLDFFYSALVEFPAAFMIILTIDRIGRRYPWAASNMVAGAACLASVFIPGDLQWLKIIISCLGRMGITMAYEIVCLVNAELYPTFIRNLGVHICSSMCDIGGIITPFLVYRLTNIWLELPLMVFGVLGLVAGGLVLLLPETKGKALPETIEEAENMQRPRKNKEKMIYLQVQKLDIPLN
compound,measurement,setting,value
CC(=O)OCC1=C(C(=O)O)N2C(=O)[C@@H](NC(=O)CCC[C@@H](N)C(=O)O)[C@H]2SC1 [Cephalosporin C],nephrotoxicity / toxicity for PTC in humans,PTC in humans,directly toxic for PTC
CC1=C2C(=CO[C@H](C)[C@H]2C)C(O)=C(C(=O)O)C1=O [Citrinin],increase of IL6 expression,[1]; human,~6 fold
same,increase of IL8 expression,[1]; human,no increase in IL8 expression was observed
same,nephrotoxicity / toxicity for PTC in humans,PTC in humans,directly toxic for PTC
OCCO [Ethylene glycol],nephrotoxicity / toxicity for PTC in humans,PTC in humans,nephrotoxicants that do not damage PTC directly
Cl[C@H]1[C@H](Cl)[C@@H](Cl)[C@@H](Cl)[C@H](Cl)[C@H]1Cl [Lindane],nephrotoxicity / toxicity for PTC in humans,PTC in humans,nephrotoxicants that do not damage PTC directly
[Cl-].[Li+] [Lithium chloride],nephrotoxicity / toxicity for PTC in humans,PTC in humans,nephrotoxicants that do not damage PTC directly
C[n+]1ccc(-c2cc[n+](C)cc2)cc1 [Paraquat],cell numbers after treatment,HPTCs,a decrease in cell numbers was not observed
same,nephrotoxicity / toxicity for PTC in humans,PTC in humans,directly toxic for PTC
same,IL-6 expression after treatment,[2],increase
CO[C@H]1/C=C/O[C@@]2(C)Oc3c(C)c(O)c4c(O)c(c(/C=N/N5CCN(C)CC5)c(O)c4c3C2=O)NC(=O)/C(C)=C\C=C\[C@H](C)[C@H](O)[C@@H](C)[C@@H](O)[C@@H](C)[C@H](OC(C)=O)[C@@H]1C [Rifampicin],IL6 Expression Levels,"[1]; human, 16 h, 1 μg/ml",5.8 ± 0.9
same,IL8 Expression Levels,"[1]; human, 16 h, 1 μg/ml",2.5 ± 0.4
same,IL6 Expression Levels,"[1]; human, 16 h, 10 μg/ml",4.5 ± 0.3
same,IL8 Expression Levels,"[1]; human, 16 h, 10 μg/ml",3.4 ± 0.3
same,IL6 Expression Levels,"[1]; human, 16 h, 100 μg/ml",2.3 ± 0.2
same,IL8 Expression Levels,"[1]; human, 16 h, 100 μg/ml",9.7 ± 0.3
same,increase of IL6 expression,"[1]; human, 16 h, 100 μg/ml",~17 fold
same,increase of IL8 expression,"[1]; human, 16 h, 100 μg/ml",~18 fold
same,IL6 Expression Levels,"[1]; human, 16 h, 1000 μg/ml",9.3 ± 0.6
same,IL8 Expression Levels,"[1]; human, 16 h, 1000 μg/ml",18.2 ± 1.2
same,IL-6 expression after treatment,[3],increase
same,IL-8 expression after treatment,[3],increase
CC(C)[C@H](N)C(=O)OCCOCn1cnc2c(=O)[nH]c(N)nc21 [Valacyclovir],IL6 Expression Levels,"[1]; human, 16 h, 1 μg/ml",1.3 ± 0.1
same,IL8 Expression Levels,"[1]; human, 16 h, 1 μg/ml",1.5 ± 0.1
same,IL6 Expression Levels,"[1]; human, 16 h, 10 μg/ml",1.3 ± 0.1
same,IL8 Expression Levels,"[1]; human, 16 h, 10 μg/ml",1.4 ± 0.1
same,IL6 Expression Levels,"[1]; human, 16 h, 100 μg/ml",1.6 ± 0.1
same,IL8 Expression Levels,"[1]; human, 16 h, 100 μg/ml",1.0 ± 0.5
same,IL6 Expression Levels,"[1]; human, 16 h, 1000 μg/ml",2.8 ± 0.4
same,IL8 Expression Levels,"[1]; human, 16 h, 1000 μg/ml",32.5 ± 1.4
CN[C@H](CC(C)C)C(=O)N[C@H]1C(=O)N[C@@H](CC(N)=O)C(=O)N[C@H]2C(=O)N[C@H]3C(=O)N[C@H](C(=O)N[C@H](C(=O)O)c4cc(O)cc(O)c4-c4cc3ccc4O)[C@H](O)c3ccc(c(Cl)c3)Oc3cc2cc(c3O[C@@H]2O[C@H](CO)[C@@H](O)[C@H](O)[C@H]2O[C@H]2C[C@](C)(N)[C@H](O)[C@H](C)O2)Oc2ccc(cc2Cl)[C@H]1O [Vancomycin],IL6 Expression Levels,[1]; [4],1.5 ± 0.3
same,IL8 Expression Levels,[1]; [4],0.7 ± 0.0
same,IL6 Expression Levels,[1]; [5],1.4 ± 0.1
same,IL8 Expression Levels,[1]; [5],0.6 ± 0.2
same,IL6 Expression Levels,[1]; [6],1.4 ± 0.1
same,IL8 Expression Levels,[1]; [6],2.9 ± 0.2
same,IL6 Expression Levels,[1]; [7],3.1 ± 0.2
same,IL8 Expression Levels,[1]; [7],98.5 ± 4.5
CN/C(=N/CCSCc1nc[nH]c1C)NC#N [cimetidine],reduction of rifampicin-induced IL6 expression,OCT2,40%
same,reduction of rifampicin-induced IL8 expression,OCT2,26%
Gentamicin,cell numbers after treatment,HPTCs,a decrease in cell numbers was not observed
same,nephrotoxicity / toxicity for PTC in humans,PTC in humans,directly toxic for PTC
